Experimental data as given in PubChem BioAssay AID2060896 (Molecular Pharmacology Branch, DTP, NCI, 2025).

Tested on: 941728-121-R-J1-PDC complex spheroid viability
Assay: Anticancer human tumor 941728-121-R-J1-PDC patient-derived lung adenocarcinoma cell line growth inhibition [RAS]
Settings: for IC50: curve of first compound; for viability, T/C: stronger effect = lower value
Procedure, shortened: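 Agents were tested in combination matrices in half-log decrements from a top concentration at or near clinical Cmax (10 microM if undetermined). Targets were multi-cell spheroids of tumour lines plus HUVEC and MSC stromal cells.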
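Note: spheroids exposed to compounds for 7 days before readout.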
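Throughout, for viability, T/C: 100% = DMSO vehicle control viability.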

## Nc1ccn(C2OC(CO)C(O)C2(F)F)c(=O)n1 (configuration not stated) + CCn1c(-c2cccnc2C(C)OC)c2c3cc(ccc31)N1CCOC(CC(NC(=O)C(C(C)C)N(C)C(=O)C3(F)CCN(C(=O)C#CC(C)(C)N(C)C)CC3)C(=O)N3CCCC(N3)C(=O)OCC(C)(C)C2)C1
Second compound 0.000949 µM
  IC50: < 3.16 nM
Second compound 0.003 µM
  IC50: < 3.16 nM
Second compound 0.00949 µM
  IC50: < 3.16 nM
Second compound 0.03 µM
  IC50: < 3.16 nM
Second compound 0.0949 µM
  IC50: < 3.16 nM
Second compound 0.3 µM
  IC50: < 3.16 nM
Second compound 0.000949 µM, first compound 0.00316 µM
  viability, T/C: 23.9%
Second compound 0.000949 µM, first compound 0.01 µM
  viability, T/C: 20.1%
Second compound 0.000949 µM, first compound 0.0316 µM
  viability, T/C: 18.7%
Second compound 0.000949 µM, first compound 0.1 µM
  viability, T/C: 18.2%
Second compound 0.000949 µM, first compound 0.316 µM
  viability, T/C: 19.5%
Second compound 0.000949 µM, first compound 1 µM
  viability, T/C: 15.3%
Second compound 0.003 µM, first compound 0.00316 µM
  viability, T/C: 22%
Second compound 0.003 µM, first compound 0.01 µM
  viability, T/C: 18%
Second compound 0.003 µM, first compound 0.0316 µM
  viability, T/C: 16.9%
Second compound 0.003 µM, first compound 0.1 µM
  viability, T/C: 19.5%
Second compound 0.003 µM, first compound 0.316 µM
  viability, T/C: 18.4%
Second compound 0.003 µM, first compound 1 µM
  viability, T/C: 13.2%
Second compound 0.00949 µM, first compound 0.00316 µM
  viability, T/C: 22.1%
Second compound 0.00949 µM, first compound 0.01 µM
  viability, T/C: 15.5%
Second compound 0.00949 µM, first compound 0.0316 µM
  viability, T/C: 18.8%
Second compound 0.00949 µM, first compound 0.1 µM
  viability, T/C: 18.2%
Second compound 0.00949 µM, first compound 0.316 µM
  viability, T/C: 20.9%
Second compound 0.00949 µM, first compound 1 µM
  viability, T/C: 17%
Second compound 0.03 µM, first compound 0.00316 µM
  viability, T/C: 20.4%
Second compound 0.03 µM, first compound 0.01 µM
  viability, T/C: 20.4%
Second compound 0.03 µM, first compound 0.0316 µM
  viability, T/C: 21.4%
Second compound 0.03 µM, first compound 0.1 µM
  viability, T/C: 17.4%
Second compound 0.03 µM, first compound 0.316 µM
  viability, T/C: 14.5%
Second compound 0.03 µM, first compound 1 µM
  viability, T/C: 17.7%
Second compound 0.0949 µM, first compound 0.00316 µM
  viability, T/C: 21.6%
Second compound 0.0949 µM, first compound 0.01 µM
  viability, T/C: 22.1%
Second compound 0.0949 µM, first compound 0.0316 µM
  viability, T/C: 20.1%
Second compound 0.0949 µM, first compound 0.1 µM
  viability, T/C: 17.6%
Second compound 0.0949 µM, first compound 0.316 µM
  viability, T/C: 19.5%
Second compound 0.0949 µM, first compound 1 µM
  viability, T/C: 16.7%
Second compound 0.3 µM, first compound 0.00316 µM
  viability, T/C: 20.3%
Second compound 0.3 µM, first compound 0.01 µM
  viability, T/C: 20.6%
Second compound 0.3 µM, first compound 0.0316 µM
  viability, T/C: 17.6%
Second compound 0.3 µM, first compound 0.1 µM
  viability, T/C: 18.1%
Second compound 0.3 µM, first compound 0.316 µM
  viability, T/C: 16.6%
Second compound 0.3 µM, first compound 1 µM
  viability, T/C: 19.2%
